Experimental data as given in ChEMBL document CHEMBL3045059, “Efficacy of ketoenols on insecticide resistant field populations of two-spotted spider mite Tetranychus urticae and sweet potato whitefly Bemisia tabaci from Greece” (2012).
Converted amounts (≈) assume the structure as drawn.

Tests used:
Assay type in all cases: functional
Tetranychus urticae [1] = assay: Resistance ratio, ratio of LC50 for adult Tetranychus urticae (two-spotted spider mite) field population TU4 to LC50 for adult Tetranychus urticae laboratory strain SAMB measured after 48 hr
Tetranychus urticae [2] = assay: Resistance ratio, ratio of LC50 for adult Tetranychus urticae (two-spotted spider mite) field population TU12 to LC50 for adult Tetranychus urticae laboratory strain SAMB measured after 48 hr
Tetranychus urticae [3] = assay: Acaricidal activity against adult Tetranychus urticae (two-spotted spider mite) field population TU6 in bean leaves assessed as mortality applied at 1 bar pressure measured after 48 hr; settings: TU6, 48 h
Tetranychus urticae [4] = assay: Resistance ratio, ratio of LC50 for adult Tetranychus urticae (two-spotted spider mite) greenhouse population TU9 to LC50 for adult Tetranychus urticae laboratory strain SAMB measured after 48 hr
Tetranychus urticae [5] = assay: Resistance ratio, ratio of LC50 for adult Tetranychus urticae (two-spotted spider mite) greenhouse population TU1 to LC50 for adult Tetranychus urticae laboratory strain SAMB measured after 48 hr
Tetranychus urticae [6] = assay: Resistance ratio, ratio of LC50 for adult Tetranychus urticae (two-spotted spider mite) greenhouse population TU3 to LC50 for adult Tetranychus urticae laboratory strain SAMB measured after 48 hr
Tetranychus urticae [7] = assay: Acaricidal activity against adult Tetranychus urticae (two-spotted spider mite) greenhouse population TU3 in bean leaves assessed as mortality applied at 1 bar pressure measured after 48 hr; settings: TU3, 48 h
Tetranychus urticae [8] = assay: Resistance ratio, ratio of LC50 for adult Tetranychus urticae (two-spotted spider mite) greenhouse population TU11 to LC50 for adult Tetranychus urticae laboratory strain SAMB measured after 48 hr
Tetranychus urticae [9] = assay: Acaricidal activity against adult Tetranychus urticae (two-spotted spider mite) greenhouse population TU7 in bean leaves assessed as mortality applied at 1 bar pressure measured after 48 hr; settings: TU7, 48 h
Tetranychus urticae [10] = assay: Acaricidal activity against adult Tetranychus urticae (two-spotted spider mite) greenhouse population TU5 in bean leaves assessed as mortality applied at 1 bar pressure measured after 48 hr; settings: TU5, 48 h
Tetranychus urticae [11] = assay: Acaricidal activity against adult Tetranychus urticae (two-spotted spider mite) field population TU12 in bean leaves assessed as mortality applied at 1 bar pressure measured after 48 hr; settings: TU12, 48 h
Tetranychus urticae [12] = assay: Resistance ratio, ratio of LC50 for adult Tetranychus urticae (two-spotted spider mite) laboratory strain GSS to LC50 for adult Tetranychus urticae laboratory strain SAMB measured after 48 hr
Tetranychus urticae [13] = assay: Acaricidal activity against adult Tetranychus urticae (two-spotted spider mite) greenhouse population TU11 in bean leaves assessed as mortality applied at 1 bar pressure measured after 48 hr; settings: TU11, 48 h
Tetranychus urticae [14] = assay: Acaricidal activity against adult Tetranychus urticae (two-spotted spider mite) field population TU4 in bean leaves assessed as mortality applied at 1 bar pressure measured after 48 hr; settings: TU4, 48 h
Tetranychus urticae [15] = assay: Acaricidal activity against adult Tetranychus urticae (two-spotted spider mite) greenhouse population TU1 in bean leaves assessed as mortality applied at 1 bar pressure measured after 48 hr; settings: TU1, 48 h
Tetranychus urticae [16] = assay: Acaricidal activity against adult Tetranychus urticae (two-spotted spider mite) field population TU2 in bean leaves assessed as mortality applied at 1 bar pressure measured after 48 hr; settings: TU2, 48 h
Tetranychus urticae [17] = assay: Resistance ratio, ratio of LC50 for adult Tetranychus urticae (two-spotted spider mite) greenhouse population TU7 to LC50 for adult Tetranychus urticae laboratory strain SAMB measured after 48 hr
Tetranychus urticae [18] = assay: Acaricidal activity against adult Tetranychus urticae (two-spotted spider mite) laboratory strain GSS in bean leaves assessed as mortality applied at 1 bar pressure measured after 48 hr
Tetranychus urticae [19] = assay: Acaricidal activity against adult Tetranychus urticae (two-spotted spider mite) laboratory strain SAMB in bean leaves assessed as mortality applied at 1 bar pressure measured after 48 hr
Tetranychus urticae [20] = assay: Resistance ratio, ratio of LC50 for adult Tetranychus urticae (two-spotted spider mite) field population TU2 to LC50 for adult Tetranychus urticae laboratory strain SAMB measured after 48 hr
Tetranychus urticae [21] = assay: Acaricidal activity against adult Tetranychus urticae (two-spotted spider mite) greenhouse population TU9 in bean leaves assessed as mortality applied at 1 bar pressure measured after 48 hr; settings: TU9, 48 h
Tetranychus urticae [22] = assay: Resistance ratio, ratio of LC50 for adult Tetranychus urticae (two-spotted spider mite) field population TU6 to LC50 for adult Tetranychus urticae laboratory strain SAMB measured after 48 hr
Tetranychus urticae [23] = assay: Resistance ratio, ratio of LC50 for adult Tetranychus urticae (two-spotted spider mite) greenhouse population TU5 to LC50 for adult Tetranychus urticae laboratory strain SAMB measured after 48 hr

Structure (SMILES)	RatioLC50 (Tetranychus urticae [1])	RatioLC50 (Tetranychus urticae [2])	LC50 (Tetranychus urticae [3])	RatioLC50 (Tetranychus urticae [4])	RatioLC50 (Tetranychus urticae [5])	RatioLC50 (Tetranychus urticae [6])	LC50 (Tetranychus urticae [7])	RatioLC50 (Tetranychus urticae [8])	LC50 (Tetranychus urticae [9])	LC50 (Tetranychus urticae [10])	LC50 (Tetranychus urticae [11])	RatioLC50 (Tetranychus urticae [12])	LC50 (Tetranychus urticae [13])	LC50 (Tetranychus urticae [14])	LC50 (Tetranychus urticae [15])	LC50 (Tetranychus urticae [16])	RatioLC50 (Tetranychus urticae [17])	LC50 (Tetranychus urticae [18])	LC50 (Tetranychus urticae [19])	RatioLC50 (Tetranychus urticae [20])	further results
CCN(CC)c1nc(C)cc(OP(=S)(OC)OC)n1 [PIRIMIPHOS METHYL]	5.5	4.3	158 µg/mL (≈ 517 µM)	14	14	7.3	130 µg/mL (≈ 426 µM)	23	1330 µg/mL (≈ 4360 µM)	204 µg/mL (≈ 668 µM)	77 µg/mL (≈ 252 µM)	19	417 µg/mL (≈ 1370 µM)	98 µg/mL (≈ 321 µM)	248 µg/mL (≈ 812 µM)	225 µg/mL (≈ 737 µM)	74	332 µg/mL (≈ 1090 µM)	18 µg/mL (≈ 59 µM)	12	LC50 (Tetranychus urticae [21]): 248 µg/mL (≈ 812 µM); RatioLC50 (Tetranychus urticae [22]): 8.9; RatioLC50 (Tetranychus urticae [23]): 11
Cc1c(COC(=O)[C@@H]2[C@H](/C=C(\Cl)C(F)(F)F)C2(C)C)cccc1-c1ccccc1 (relative stereo) [BIFENTHRIN]	351	9.5	8.5 µg/mL (≈ 20.1 µM)	12	13	83	741 µg/mL (≈ 1750 µM)	19	75100 µg/mL (≈ 178000 µM)	45 µg/mL (≈ 106 µM)	85 µg/mL (≈ 201 µM)	1.5	168 µg/mL (≈ 397 µM)	3140 µg/mL (≈ 7420 µM)	115 µg/mL (≈ 272 µM)	42 µg/mL (≈ 99.3 µM)	8413	13 µg/mL (≈ 30.7 µM)	8.9 µg/mL (≈ 21 µM)	4.7	LC50 (Tetranychus urticae [21]): 112 µg/mL (≈ 265 µM); RatioLC50 (Tetranychus urticae [22]): 0.9; RatioLC50 (Tetranychus urticae [23]): 5
